{"source": "patent US20210061800A1", "about": "“COMPOUNDS FOR TREATING EYE DISEASES AND METHODS THEREOF” (Agency for Science, Technology and Research, priority 2017, published 2021)", "key": {"PDGFR-WT [1]": {"target": "T1, PDGFR-WT (Homo sapiens, UniProt P09619)", "test": "PDGFRβ signaling in HEK293 cells (Western blot: PDGFRβ autophosphorylation, Shp2 phosphorylation)", "assay_type": "cell-based", "parameters": "expressed in transfected cells; host or cells: HEK293", "conditions": "20 ng/ml PDGF", "experimental": "FIG. 5 illustrates a Western-blot analysis result of Ex 1 (a compound of the present invention), in relation to inhibit PDGFRβ signaling in HEK293 cells expressing PDGFRβ.\nHuman Embryonic kidney cells (HEK293) were constructed to express human PDGFRWT under the control of constitutive CMV promoter. Cells were grown in the presence of 20 ng/ml PDGF (the ligand for the PDGFRβ) to activate the PDGFRβ. Different concentration of Ex 1 were added to study its effect on the PDGFRβ-mediated signaling. Autophosphorylation of PDGFRβ and Shp2 phosphorylation were monitored by Western blotting were used as the markers for PDGFRβ signaling. B Actin was used as an internal control."}, "human PDGFRβWT": {"tested_on": "human PDGFRβWT", "test": "Humanized yeast screen: prevention of PDGFR-induced death of yeast cells", "conditions": "10 μM; compared to DMSO or Gleevec", "description": "A humanized yeast screen was performed. Yeast cells carrying stably integrated GAL-PDGFRβ were first grown in YEP+raff medium and then seeded into fresh YEP+raff+GAL medium to induce expression of human PDGFRβWT."}, "human PDGFRβ": {"target": "T2, human PDGFRβ (Homo sapiens, UniProt P09619)", "T2 construct": "expressed in transfected cells; host or cells: Ba/F3", "T2 sequence (P09619 33-1106)": "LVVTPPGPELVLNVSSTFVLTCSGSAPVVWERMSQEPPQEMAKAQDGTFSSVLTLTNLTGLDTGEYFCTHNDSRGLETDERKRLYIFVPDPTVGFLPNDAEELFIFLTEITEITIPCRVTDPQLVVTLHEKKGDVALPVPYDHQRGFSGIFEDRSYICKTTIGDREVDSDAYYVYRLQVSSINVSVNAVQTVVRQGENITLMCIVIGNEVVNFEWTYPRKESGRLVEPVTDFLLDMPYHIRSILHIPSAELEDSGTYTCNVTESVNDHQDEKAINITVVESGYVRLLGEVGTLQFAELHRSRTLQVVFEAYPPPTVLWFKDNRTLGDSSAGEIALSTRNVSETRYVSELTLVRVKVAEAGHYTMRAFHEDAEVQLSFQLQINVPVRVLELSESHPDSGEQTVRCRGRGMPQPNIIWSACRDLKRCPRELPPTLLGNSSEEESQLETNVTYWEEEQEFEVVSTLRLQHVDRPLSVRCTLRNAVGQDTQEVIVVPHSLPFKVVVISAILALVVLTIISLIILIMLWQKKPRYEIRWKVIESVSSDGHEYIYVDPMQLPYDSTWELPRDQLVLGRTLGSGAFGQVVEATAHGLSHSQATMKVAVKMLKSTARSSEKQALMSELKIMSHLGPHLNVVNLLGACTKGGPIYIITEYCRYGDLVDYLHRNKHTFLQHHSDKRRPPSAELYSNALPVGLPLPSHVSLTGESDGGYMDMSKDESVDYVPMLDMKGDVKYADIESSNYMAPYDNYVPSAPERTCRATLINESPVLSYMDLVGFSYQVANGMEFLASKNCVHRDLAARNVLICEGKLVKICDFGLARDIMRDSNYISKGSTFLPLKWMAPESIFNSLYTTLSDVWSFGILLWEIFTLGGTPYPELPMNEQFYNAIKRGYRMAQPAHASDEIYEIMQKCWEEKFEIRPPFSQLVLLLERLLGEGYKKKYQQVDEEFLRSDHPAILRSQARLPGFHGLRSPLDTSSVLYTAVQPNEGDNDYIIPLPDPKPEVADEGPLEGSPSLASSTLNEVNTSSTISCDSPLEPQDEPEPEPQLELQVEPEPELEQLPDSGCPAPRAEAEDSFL", "test": "PDGFRβ signaling in Ba/F3 cells (Western blot)", "assay_type": "cell-based", "conditions": "BaF3 cells expressing PDGFRβ, PDGF-induced", "experimental": "FIG. 7 illustrates a Western-blot analysis result of Ex 2 and Ex 3 (compounds of the present invention) to inhibit PDGFRβ signaling in BaF3 cells expressing PDGFRβ.\nBa/F3 cells were constructed to express human PDGFRβ under the control of CMV promoter. The PDGFRβ signaling was induced by addition of the ligand PDGF. The effect of […] and Ex 3 was added to the cell cultures at different concentrations to determine their efficacy to inhibit the PDGFRβ signaling as reflected by the inhibition of PDGFRβ autophosphorylation and the phosphorylation of Shp2, a downstream effector of the PDGFRβ signal pathway.\nFIG. 7 illustrates a Western-blot analysis result, illustrating the efficacy of compounds of the present invention to inhibit PDGFRβ signaling in BaF3 cells expressing PDGFRβ."}, "[2]": {"tested_on": "Choroid membrane preparations", "test": "Ex vivo organoid model of angiogenesis (choroid membrane preparations in Matrigel)", "assay_type": "cell-based, mice", "conditions": "mouse choroid in Matrigel", "experimental": "Choroid membrane preparations isolated from young mice were cultured in Matrigel. Matrigel containing these preparations were layered with growth medium containing various concentrations of Ex 2 and Ex 3. The ‘blood vessel’ growth was monitored and quantified using a specialized image analysis software.\nFIG. 10 illustrates the efficacy of the compounds of the present invention in an ex vivo organoid model of angiogenesis. Compounds of the present invention show anti-angiogenesis in organoid model."}, "PDGFR-WT [3]": {"target": "T1, PDGFR-WT", "test": "PDGFRβ-dependent growth of Ba/F3 cells", "assay_type": "cell-based", "conditions": "inhibition of PDGFRβ-dependent growth of Ba/F3 cells; read-out: effective concentration-50 (EC50) against PDGFR-WT", "experimental": "Based on in silico modelling and simulation, different derivatives of the diphenyl oxyacetamide based compounds (formula (I)) were synthesized. The potency of the compounds were measured in terms of its ability to inhibit the PDGFRβ-dependent growth of Ba/F3 cells.\nFIG. 6 illustrates work flow for synthesis of G6 derivatives Effective Concentration-50 (EC50) as determined using Ba/F3 cell."}, "[4]": {"tested_on": "Choroid Neo-Vascularization", "test": "Laser CNV mouse model for wet-AMD", "assay_type": "in vivo", "conditions": "injection into one eye, imaged for two weeks", "experimental": "In vivo testing of Ex 3 in CNV (Choroid Neo-Vascularization)-laser mouse model was performed. Eyes of young mice were treated with laser to create choroid damage which results in the leakage of blood vessels (seen as light areas of FIG. 11). In each mouse, one eye was injected with a predetermined amount of Ex 3 while the other eye remained untreated to serve as ‘treatment(−)’ control. Mouse eyes were imaged intermittently for two weeks. The efficacy of the compound Ex 3 is indicated by its ability to prevent the leakage of the blood vessels (reduction or disappearance of the bright green areas).\nFIG. 11 illustrates the efficacy of a compound of the present invention in Laser CNV mouse model for wet-AMD."}}, "data": [{"compound": "Cc1ccc(NC(=O)COc2ccc(-n3cnnn3)cc2)cc1C", "note": "[Ex 1, N-(3,4-dimethylphenyl)-2-[4-(tetrazol-1-yl)phenoxy]acetamide]", "values": [{"measurement": "inhibition of PDGFRWT-mediated signaling", "setting": "PDGFR-WT [1]", "value": "efficiently inhibits the PDGFRWT-mediated signaling"}, {"measurement": "cell growth (OD reading) of humanized yeast expressing PDGFRβ", "setting": "human PDGFRβWT", "value": "allows cell-growth more efficiently compared to DMSO or Gleevec"}]}, {"compound": "Cc1ccc(NC(=O)COc2ccc(-c3cnc4ccccn34)cc2)cc1C", "note": "[Ex 2, N-(3,4-dimethylphenyl)-2-[4-imidazo[1,2-a]pyridin-3-ylphenoxy]acetamide]", "values": [{"measurement": "activity against PDGFRβ-WT signaling", "setting": "human PDGFRβ", "value": "show activities against PDGFRβ-WT"}, {"measurement": "anti-angiogenesis efficacy ('blood vessel' growth)", "setting": "[2]", "value": "better anti-angiogenesis efficacy then Ex 3"}, {"measurement": "EC50", "setting": "PDGFR-WT [3]", "value": 0.01, "unit": "µM"}]}, {"compound": "Cc1ccc(NC(=O)COc2ccc(-c3cnc4ccccn34)cc2)cc1C(F)(F)F", "note": "[Ex 3, N-[4-methyl-3-(trifluoromethyl)phenyl]-2-[4-imidazo[1,2-a]pyridin-3-ylphenoxy]acetamide]", "values": [{"measurement": "efficacy in preventing leakage of blood vessels", "setting": "[4]", "value": "efficacy"}, {"measurement": "activity against PDGFRβ-WT signaling", "setting": "human PDGFRβ", "value": "show activities against PDGFRβ-WT"}, {"measurement": "EC50", "setting": "PDGFR-WT [3]", "value": 0.01, "unit": "µM"}]}]}
